Drawing on PubChem BioAssay AID1159562 (GlaxoSmithKline (GSK), 2015), this text covers IC50 for 93 molecules.

Activity calls are given as the source filed them. No rule for the calls is given here.

For this test, the system named is Trypanosoma brucei growth inhibition, luminescence. Put plainly: antitrypanosomal activity against T. brucei – luminescence (AID 1159562).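 Also: parasites grew with compound for 24 h before the luminescence read.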
As for `Cc1cc2cncn2c(C2CCCCN2C(=O)c2cccs2)n1` (stereo not drawn), the IC50 is > 40 µM (inactive).
In the case of `N#Cc1cnc(Nc2cccc(CCN3CCOCC3)c2)nc1Nc1ccccc1C(N)=O`, the concentration for half-maximal inhibition (IC50) was 0.25 µM.
For `N#Cc1ccc(Br)cc1[N+](=O)[O-]` the value was 0.2 µM.
With `O=C1OCc2ccc(Nc3nccc(-c4cnn5ncccc45)n3)cc21`, the IC50 was 0.02 µM.
As for `O=C(Nc1ccc(-c2nc3ccccc3c(=O)[nH]2)cc1)c1cccs1`, the IC50 is 1 µM.
For `CN1CCCN(C(=O)c2ccc(N3CCCC3)cc2Cl)CC1` the value was > 40 µM (inactive); for `Cc1nc(-c2ccc3c(c2)OCO3)sc1C(=O)NCc1ccc2c(c1)OCO2`, > 40 µM (inactive).
As to `COc1cccc2sc(CN(C)C(=O)C3CNCCN3c3ccc(F)cc3)c(C)c12` (stereo not drawn), the IC50 is 0.25 µM.
Next, `O=C(NCc1ccc(-n2cccc2)cc1)c1nc(Cn2ccc([N+](=O)[O-])n2)no1`: > 40 µM (inactive).
On to `Cc1c([N+](=O)[O-])c(C(=O)Nc2sc3c(c2C#N)CCC(C)C3)nn1C` (stereo not drawn), for which the IC50 is > 40 µM (inactive).
`Cc1[nH]n2c(=O)c3c(nc2c1-c1ccc(F)cc1)CCCC3`: the IC50 was 0.63 µM.
Consider `CC(=O)NCCNc1cc(-c2ccnc(Nc3cccc(Cl)c3)n2)ccn1`, for which the 50% inhibitory concentration (IC50) is 0.2 µM.
Next, `Cc1ccc(NC(=O)c2ccc([N+](=O)[O-])s2)cc1S(=O)(=O)N1CCOCC1`: 0.79 µM.
For `O=C(CN(Cc1ccccn1)Cc1ccccn1)NCc1ccc(-c2csnn2)cc1` the value was 7.9 µM.
For `c1ccc(CCNCc2cncc3nc(-c4cnccn4)n(C4CCCCC4)c23)cc1` the value was > 40 µM (inactive); for `COc1ccc(S(=O)(=O)NCc2ccc(-c3ccc(CN(C)CCO)cc3)cc2)cc1`, 3.2 µM.
Take `O=C(CSc1ccc(-c2ccccn2)nn1)Nc1ccc(Cl)cc1`: the IC50 was > 40 µM (inactive).
For `Cn1cc(CN2CCN(c3ccc4c(c3)CCN(C(=O)[C@H]3C[C@@H]3c3ccccc3)CC4)CC2)cn1` the value was 40 µM.
For `O=C(Nc1nc(-c2ccccn2)cs1)c1ccc(S(=O)(=O)N2CCCCC2)cc1` the value was 0.63 µM; for `CCC(=O)Nc1ccc(C(=O)Nc2ccccc2-c2ccccc2)cc1`, 25 µM; for `O=C(CSc1nnc(-c2ccc3c(c2)OCO3)o1)N(Cc1ccco1)CC(F)(F)F`, > 40 µM (inactive).
Next, `COCCn1c(-c2ccccc2)cnc1NCc1ccccc1OC`: 16 µM; `Cn1c(CN2CCN(c3ncc(C(F)(F)F)cc3Cl)CC2)nc2ccncc21`: > 40 µM (inactive); `COc1cc(C2SCC(=O)Nc3c2c(C)nn3-c2nc3ccccc3s2)cc(OC)c1O` (stereo not drawn): > 40 µM (inactive).
Consider `NC(N)=Nc1nc(-c2ccc(NC(N)=NCCN3CCCC3)cc2)cs1`, for which the IC50 was 0.1 µM.
With `O=C(c1ccc(OCCCc2cnc[nH]2)cc1)C1CC1`, the IC50 is > 40 µM (inactive).
For `Cc1ccccc1NS(=O)(=O)c1ccc2[nH]cc(C(=O)NC3CCCC(C)C3C)c(=O)c2c1` (stereo not drawn) the value was 0.63 µM; for `O=C(NC(CO)c1ccc(F)cc1)c1ccc(-c2c[nH]c3ncccc23)s1` (stereo not drawn), 0.79 µM; for `COc1ccc(CN(C)Cc2ccncc2)cc1-c1ccc(S(=O)(=O)NC2CCC2)s1`, 20 µM.
Consider `c1ccc2c(CCOc3nccnc3-c3ccncc3)c[nH]c2c1`, for which the IC50 was 40 µM.
`N#Cc1cccc(Nc2nccc(N3CCC(NS(=O)(=O)c4cccc(C#N)c4)CC3)n2)c1`: the IC50 was 6.3 µM.
For `O=c1cc(CSc2ccc(Cl)cc2)nc(-c2ccccn2)[nH]1` the value was 1 µM.
For `CN(C)c1ccc(N)cc1CN(CC1CCCO1)S(C)(=O)=O` (stereo not drawn) the value was > 40 µM (inactive); for `Cc1nc(C(=O)Nc2ccc3c(c2)OCO3)nn1-c1ccc(Cl)cc1`, > 40 µM (inactive).
`Cc1ccc(CNC2CCN(C[C@@H]3Cn4c(=O)ccc5ccc(=O)n3c54)CC2)cc1F`: the IC50 was 2 µM.
`CCc1cc(C(=O)Nc2nccn2-c2ccccc2)cs1`: the IC50 was 4 µM.
Next, `O=C(c1ccc(Cl)cc1)c1ccc(OC(=O)N2CCOCC2)cc1`: > 40 µM (inactive); `CN(C)CCOc1ccc(N2CCN(S(=O)(=O)c3ccc(Cl)cc3)CC2)cc1`: 25 µM; `CC(=O)Nc1cccc(Nc2ncnc3nc[nH]c23)c1`: 0.4 µM.
For `Cc1cc(N(C)C)nc2ccc(Cc3cnc(N)nc3N)cc12`, the IC50 is 5 µM.
For `CC1(C)CCC(=Cc2ccc(Cl)cc2)CC1(O)Cn1ccnc1` (stereo not drawn) the value was 25 µM; for `Nc1nonc1-c1nc2cncc(C(=O)N3CC[C@H](N)C3)c2n1CC1CC1`, 0.79 µM.
For `CN(Cc1nnnn1C1CCN(Cc2ccc(-n3ccnc3)cc2)CC1)c1ccc(F)cc1F` the value was > 40 µM (inactive); for `C[C@@H](Oc1cc(-n2cnc3ccc(CC(O)CO)cc32)sc1C(N)=O)c1ccccc1Cl` (stereo partly drawn), 0.79 µM.
For `CCN(CC)S(=O)(=O)c1ccc(OC)c(NC(=O)c2ccc([N+](=O)[O-])s2)c1` the value was 0.63 µM.
In the case of `CC(=O)Nc1ccc(-c2noc(CC3CCCN(Cc4cccc(F)c4C)C3)n2)cc1` (stereo not drawn), the IC50 was 25 µM.
Next, `COc1ccc(OC)c2c(=O)c(Cc3ccccc3)c(C)[nH]c12`: > 40 µM (inactive); `N#Cc1cccc(CN2CCC(c3nc(-c4ccc(C(F)(F)F)nc4)no3)CC2)c1`: > 40 µM (inactive); `COc1ccc(C2CC(c3ccc(NS(C)(=O)=O)cc3)=NN2C(=O)c2cccs2)cc1OC` (stereo not drawn): 25 µM.
For `CNC(=O)C1Cc2ccccc2N1C(=O)COc1cccc(OC)c1` (stereo not drawn) the value was 1 µM; for `Cc1ccccc1NS(=O)(=O)c1ccc2[nH]cc(C(=O)NC3CCCC3)c(=O)c2c1`, 0.63 µM; for `COc1ccc(-c2nc3ccncc3c(=O)n2CCOc2ccccc2)cc1`, 32 µM.
For `CN(Cc1ccc(C(N)=O)cc1)C(c1ccc(F)cc1)c1cccnc1` (stereo not drawn) the value was > 40 µM (inactive); for `O=C(NCCc1cccnc1)c1csc(-c2ccccc2)n1`, > 40 µM (inactive).
Turning to `CCCc1cc(N)nc(-c2cc(CCC)cc(N)n2)c1`, the IC50 is 7.9 µM.
Next, `c1ccc(Nc2nc(-c3ccccn3)cc(N3CCOCC3)n2)cc1`: 13 µM.
On to `O=C(c1ccc(O)c(Cl)c1)N1CCN(c2cnccn2)CC1`, for which the IC50 is > 40 µM (inactive).
For `Cc1occc1C(=O)Nc1ccccc1C(=O)Nc1nccs1` the value was 0.5 µM; for `Cc1cc(C)c(C#N)c(SCC(=O)c2ccc3c(c2)OCO3)n1`, 16 µM; for `Cc1ccc(-c2csc(NC(=O)C=Cc3ccc(S(=O)(=O)N4CCOCC4)cc3)n2)o1`, 5 µM.
Next, `CC(C)Nc1nc(Cl)nc2ccccc12`: 13 µM; `O=C(NCc1ccc(Cl)cc1)C1CN(C(=O)c2ccc(F)cc2)CCS1` (stereo not drawn): 0.63 µM; `Cc1[nH]nc2c1C(c1ccc(OCc3ccccc3F)cc1)SCC(=O)N2` (stereo not drawn): > 40 µM (inactive).
For `CCc1cccc(-n2nc(OCC(=O)NC3CCCC3)c3cccnc32)c1` the value was > 40 µM (inactive); for `O=C(COc1ncnc2cc([N+](=O)[O-])ccc12)NC(=O)NC1CCCCC1`, > 40 µM (inactive); for `O=C(Cn1cnc([N+](=O)[O-])n1)Nc1ccc(Cl)cc1C(=O)c1ccccc1`, 32 µM.
On to `CN(CCOc1ccc(Cl)cc1)Cc1nc(N)nc(N(C)C)n1`, for which the IC50 is 16 µM.
Next, `CN(C)S(=O)(=O)c1ccc(Cl)c(C(=O)Nc2nc(-c3ccccn3)cs2)c1`: 0.4 µM; `O=C(NCCc1cccnc1)c1ccc(-c2ccccc2F)o1`: > 40 µM (inactive); `CC(C(=O)Nc1ccccc1F)N(C)CC(=O)Nc1cccc2ccccc12` (stereo not drawn): > 40 µM (inactive).
Next, `COc1ccccc1-n1c(SCC(=O)Nc2ccc3c(c2)OCO3)nc2c(c1=O)SCC2`: > 40 µM (inactive); `COc1ccc(C(=O)Nc2cc(C(F)(F)F)ccc2N2CCOCC2)c(OC)c1`: 25 µM; `COc1ccc(-c2csc(NC(=O)c3ccc([N+](=O)[O-])s3)n2)cc1`: 0.79 µM.
For `O=[N+]([O-])c1ccc(-c2nnn(-c3cccnc3)n2)o1` the value was 0.5 µM; for `CCC1Oc2cc(S(=O)(=O)N(C)CC(=O)N3CCc4ccccc4C3)c(C)cc2NC1=O` (stereo not drawn), 32 µM.
With `NC(=O)c1ncccc1Nc1nc(NC2CCC(O)CC2)ncc1Br` (stereo not drawn), the IC50 is 0.63 µM.
For `O=C(CN(Cc1ccccn1)Cc1ccccn1)NCc1csc(-c2cccs2)n1` the value was 16 µM; for `CCc1cccc(CC)c1-n1c(SCC(=O)N2CC(=O)Nc3ccccc32)nnc1-c1cccnc1`, 1 µM.
For `COc1ccc2ncc(Cl)c(CCN3CC[C@H](NCc4cc5c(cn4)OCS5)[C@@H](O)C3)c2n1` the value was 0.63 µM.
Next, `CNC(=O)Oc1ccc(C(=O)NCc2ccccc2)cc1OC(=O)NC`: 0.4 µM.
As to `COc1ccc(NS(=O)(=O)c2cccc(NC(=O)c3cc(F)cc(F)c3)c2)cc1`, the IC50 is 1 µM.
Next, `COc1cnc2ccc(=O)n(CCN3CCC(NC/C=C/c4cc(F)ccc4F)CC3)c2c1`: 0.79 µM; `COc1ccc(C2C3CCCCC3(O)CCN2CC(=O)Nc2ccc(Cl)cc2Cl)cc1` (stereo not drawn): 25 µM.
Next, `COc1ccnc2[nH]cc(-c3cc(C(=O)N[C@H](CO)c4ccccc4)co3)c12`: 0.013 µM; `CN1CCC(N(C)c2nccc(N3CCN(C(=O)c4cccc(-c5cccnc5)c4)CC3)n2)CC1`: 1 µM.
In the case of `Cc1nnnn1-c1cccc(C(=O)N2CCC[C@@]3(C)c4ncncc4CCC23)c1` (stereo partly drawn), the IC50 was > 40 µM (inactive).
Next, `c1ccc2sc(Nc3nc4ncccc4[nH]3)nc2c1`: 1.6 µM.
For `O=C(NCC1CCCCC1)c1cc(=O)c2ccccc2o1` the value was 1.3 µM.
For `Cn1nc(-c2ccc(NC(=O)Cc3ccccc3Cl)cc2)c2c(N)ncnc21` the value was 0.25 µM; for `CC(Cn1ccnc1)NC(=O)C1CC1c1cccc(Cl)c1Cl` (stereo not drawn), > 40 µM (inactive).
Turning to `COc1ncc(-c2ccc3nccc(-c4ccncc4)c3c2)cc1NS(C)(=O)=O`, the IC50 is 1 µM.
Regarding `OCCCNc1nc(Nc2ccncc2)nc2ccccc12`, the IC50 was > 40 µM (inactive).
For the molecule `N#Cc1ccc(S(=O)(=O)N2CCC3(CCN(c4ccccc4)C3=O)CC2)cc1`, the IC50 is > 40 µM (inactive).
